Tests used:
cell-surface LDLR [1] = experiment: Cell surface LDLR analysis by flow cytometry, GBM cells; format: cell-based, human; settings: PD 10 μM or U18666a 1 μM, 24 hours
Protocol: (§1) FIGS. 16A to 16D show the results that PD increases the expression of LDLR on cell surfaces in GBM cells. […] GAPDH was used as a loading control. […] GAPDH was used as a loading control.
(§2) Cells treated as described in FIG. 16 were separated from plates and resuspended in PBS. After washing with 1% BSA in PBS, the cells were incubated with a primary antibody against human LDLR (Abcam) for 30 minutes. Then, the cells were washed before incubation with an Alexa-Fluor 488-conjugated secondary antibody (Invitrogen) for 30 minutes. The stained cells were washed and resuspended. Fluorescence was analyzed by a FACScalibur flow cytometer (Becton Dickinson, San Jose, Calif., USA) using CellQuest™ software.
(§3) Brain is the most cholesterol-rich organ of the body, containing about 20% of total body cholesterol. […] As can be confirmed in FIG. 16A, in consistent with these reports, the LDLR protein level was markedly elevated in U87MG and U373MG cells relative to normal human astrocytes. […] Then, the cell surface expression of LDLR was confirmed by flow cytometry.

cell-surface LDLR [2] = experiment: Cell surface LDLR analysis by flow cytometry, normal astrocytes; format: cell-based, human; settings: PD 10 μM or U18666a 1 μM, 24 hours
Protocol: as §1, §2, §3

U87MG and U373MG cells [3] = experiment: DQ Red-BSA trafficking assay (lysosomal proteolytic activity) in GBM cells; format: cell-based, human; settings: PD 10 μM or BafA1 (100 μM), 24 hours
Protocol: Cells were incubated with DMSO, PD (10 μM), or BafA1 (100 μM) for 24 hours, and then the cells were treated with DQ-BSA ([…]) for 30 minutes. Data shown are representative images of each sample. The fluorescence intensity of DQ-BSA was quantified with ImageJ software. More than 100 cells were counted in each condition and the number of puncta per cells is presented as means±SD from three independent experiments.
Cells were placed on coverslips prior to treatment with the materials and continuously loaded with DQ Red-BSA (Invitrogen) at a working concentration of 10 μg/mL in a culture medium at 37° C. for 30 minutes. The cells were fixed in 4% PFA and then subjected to DAPI staining. The images were examined under a Zeiss laser confocal microscope. The number of DQ Red-BSA spots was quantified using ImageJ software.
To confirm the lysosomal activity in PD-treated GBM cells, the DQ-BSA assay was performed to assess lysosomal protein degradation. In DQ-BSA, which is a red BODIPY dye conjugated to bovine serum albumin (BSA), the BSA is so heavily conjugated that the red fluorescence is self-quenched. Upon cleavage of the DQ-BSA by proteolytic enzymes in lysosomal compartments, this quenching is relieved, generating red fluorescence. Thus, DQ-BSA is a useful tool to visualize a lysosomal proteolytic activity.

[4] = test system: A549, H358, MCF7, HT29 and HepG2 cells; experiment: WST1 cell viability assay in various cancer cell lines; format: cell-based; settings: different concentrations, 48 hours, all cell lines tested
Protocol: FIGS. 9A to 9C show the results that PD decreases cell viability and vacuole formation in various cancer cell lines. FIGS. 9A and 9B show the results in which indicated cells were treated with different concentrations of PG or PD for 48 hours and cell viability was measured by WST1 assay. Data shown represent the means of quintuplicate measurements which were repeated three times. The results are presented as a percentage of control (means±SD).
(§4) Cell cytotoxicity was assessed by WST1 assay. U87 and U373 cells were each seeded in a 96-well plate (5×10^3 cells/well) and treated with different concentrations of platycodin D (PD). Then, cells were incubated with a WST1 reagent (Dogen, Seoul, Korea) for 2 hours before reading the plate. Absorbance was measured at 450 nm using an ELISA reader (Versa Max, Molecular Devices, Sunnyvale, Calif., USA).
Previously, PD was reported to inhibit cell viability in various cancer cell lines. To further confirm the effects of PD on the cytotoxicity of cancer cells, WST1 assay was performed following treatment with different concentrations of PD.

cathepsin B and D = experiment: Immunoblot of cathepsin B and D processing in GBM cells; format: cell-based, human; settings: PD 5 μM and 10 μM, 48 hours
Protocol: Immunoblot analyses for the processing of endogenous CTSB and CTSD are shown (upper, immature form/lower, mature form of CTSB and CTSD). GAPDH was used as a loading control.
Cells treated with the concentrations and materials described in FIGS. 1-3B, 7, 8, 10, 13, 16, 18, and 20 were lysed in buffer containing 20 mM Tris-HCl (pH 7.5), 150 mM NaCl, 1 mM EDTA, 1 mM Na2EDTA, 1 mM EGTA, 1% NP-40, 1% sodium deoxycholate, 1 mM Na3VO4, 1 mM MPI, 1 mM PMSF, and PI cocktails for 15 to 20 minutes on ice. Cell lysates were separated by SDS-PAGE and transferred to nitrocellulose membranes. Immunodetection was performed with the following primary antibodies: rabbit anti-LC3B, rabbit anti-cathepsin B, rabbit-anti GAPDH (Cell Signaling Technology, Danvers, Mass.), mouse anti-SQSTM1/p62, and goat anti-cathepsin D (Santa CruzKPL, Gaithersburg, Md., USA) were incubated at room temperature for 1 hour. The protein bands were detected with ECL western Blotting Substrate (Thermo Fisher Scientific, Waltham, Mass., USA).
To confirm whether PD functions as an autophagy inhibitor, the effects of PD on lysosomal proteases, cathepsin B and D, were examined Autophagy is a lysosome-mediated and self-degradative process that requires lysosomal cysteine proteases known as cathepsins. Since pro-cathepsins are cleaved into a mature form in lysosomes, the 33 kD active cleaved form of cathepsins has been commonly used as a marker for lysosomal activity. As can be confirmed in FIG. 13, while the mature forms of cathepsin B and D proteins were decreased, immature forms of those protein were increased after PD treatment in U87MG and U373MG cells, implying that PD suppresses a lysosomal function by downregulating the lysosomal proteolytic activity.

U87MG and U373MG cells [5] = experiment: WST1 cell viability assay, GBM cells; format: cell-based, human
Protocol: FIGS. 6A and 6B show the results that PD induces a decrease in cell viability and vacuole formation. […] Data shown represent the means of quintuplicate measurements which were repeated three times. The results are presented as a percentage of control (means±SD).
as §4

## C[C@@H]1O[C@@H](O[C@H]2[C@H](OC(=O)[C@]34CCC(C)(C)C[C@H]3C3=CC[C@@H]5[C@@]6(C)C[C@H](O)[C@H](O[C@@H]7O[C@H](CO)[C@@H](O)[C@H](O)[C@H]7O)C(CO)(CO)[C@@H]6CC[C@@]5(C)[C@]3(C)C[C@H]4O)OC[C@H](O)[C@@H]2O)[C@H](O)[C@H](O)[C@H]1O[C@@H]1OC[C@@H](O)[C@H](O[C@@H]2OC[C@](O)(CO)[C@H]2O)[C@H]1O [PD, platycodin D]
cell-surface LDLR [1]
  cell surface expression of LDLR: shift of the FL-1 histogram peak toward right
cell-surface LDLR [2]
  changes in peak shift (cell surface LDLR): very negligible
U87MG and U373MG cells [3]
  DQ-BSA red fluorescence vs DMSO: significant reduction
[4]
  cell viability: suppressed the-viability in a dose-dependent manner
Cathepsin B and D
  immature forms of cathepsin B and D proteins: increased
  mature forms of cathepsin B and D proteins: decreased
U87MG and U373MG cells [5]; 10 μM PD, 3 days
  viability of GBM cells: reduced the viability
U87MG and U373MG cells [5]; PD 0-20 μM, 48 hours, dose-dependent
  percentage of viable cells: significantly decreased
U87MG and U373MG cells [5]; PD 10 μM, 48 hours, GBM cells, percentage of control
  cell viability: approximately 60%

Source: patent US11351218B2, “Composition for preventing or treating glioblastoma comprising Platycodon grandiflorum A. De Candolle, Scutellaria baicalensis, Phellodendron amurense Ruprecht or Rubus coreanus” (University-Industry Cooperation Group of Kyung Hee …, priority 2019, dated 2022)
